The source of these data is patent publication US20080293749A1, “Pyrrolidine(thi)ones Substituted by Heterocyclic Substituents in The 3-Position” (Gruenenthal GmbH, priority 2005, published 2008).

Values after ≈ are worked out from the molar mass of the structure shown. A value given as a limit tells only on which side of the number the result lay.

Tested on in the first data set: not given
Assay: not given
Settings: not given
Broadly, the melting point is the temperature, or range, at which the solid turns liquid. For `O=C1CC(N2C=Nc3c(Cl)cc(Cl)cc3C2)C(=O)N1` (stereo not drawn) [Example 8e, 3-(6,8-dichloro-4H-quinazolin-3-yl)-pyrrolidine-2,5-dione], the melting point was in the range of 230 to 232 °C.

The molecule `O=C1CC(N2C=Nc3ccc([N+](=O)[O-])cc3C2)C(=O)N1` (stereo not drawn) [Example 8f, 3-(6-nitro-4H-quinazolin-3-yl)-pyrrolidine-2,5-dione] yielded a melting point of 168 to 172 °C.

In turn, `O=C1CC(N2C=Nc3cc([N+](=O)[O-])ccc3C2)C(=O)N1` (stereo not drawn) [Example 8h, 3-(7-nitro-4H-quinazolin-3-yl)-pyrrolidine-2,5-dione] had a melting point of 212 to 225 °C.

The molecule `Cc1cc(Br)c2c(c1)CN(C1CC(=O)NC1=O)C=N2` (stereo not drawn) [Example 8i, 3-(8-bromo-6-methyl-4H-quinazolin-3-yl)-pyrrolidine-2,5-dione] registered a melting point of 240 to 241 °C.

Consider `O=C1CC(N2C=Nc3c(Cl)cccc3C2)C(=O)N1` (stereo not drawn) [Example 8j, 3-(8-chloro-4H-quinazolin-3-yl)-pyrrolidine-2,5-dione], for which the melting point turned out to be 194 °C.

As for `COc1cccc2c1N=CN(C1CC(=O)NC1=O)C2` (stereo not drawn) [Example 8k, 3-(8-methoxy-4H-quinazolin-3-yl)-pyrrolidine-2,5-dione], the melting point was 195 to 200 °C.

`O=C1CC(N2C=Nc3ccc(OCc4ccccc4)cc3C2)C(=O)N1` (stereo not drawn) [Example 8l, 3-(6-benzyloxy-4H-quinazolin-3-yl)-pyrrolidine-2,5-dione] came in with a melting point of 171 to 173 °C.

Take `O=C1CC(N2C=Nc3ccc(Cl)c(Cl)c3C2)C(=O)N1` (stereo not drawn) [Example 9a, 3-(5,6-dichloro-4H-quinazolin-3-yl)-pyrrolidine-2,5-dione]: the melting point was 174 to 178 °C.

The molecule `COc1cc2c(cc1OC)N=CN(C1CC(=O)NC1=O)C2` (stereo not drawn) [Example 10b, 3-(6,7-dimethoxy-4H-quinazolin-3-yl)-pyrrolidine-2,5-dione] displayed a melting point of 189 to 200 °C.

The molecule `O=C1CC(N2C=Nc3c(cccc3C(F)(F)F)C2)C(=O)N1` (stereo not drawn) [Example 11c, 3-(8-trifluoromethyl-4H-quinazolin-3-yl)-pyrrolidine-2,5-dione] yielded a melting point of 188 to 190 °C.

For `CN1C(=O)CC(N2C=Nc3ccccc3C2)C1=O` (stereo not drawn) [Example 11d, 1-methyl-3-(4H-quinazolin-3-yl)-pyrrolidine-2,5-dione], the melting point is 163 to 164 °C.

Consider `CN1C(=O)CC(N2C=Nc3cc(F)ccc3C2)C1=O` (stereo not drawn) [Example 11e, 7-fluoro-1-methyl-3-(4H-quinazolin-3-yl)-pyrrolidine-2,5-dione], for which the melting point fell in the range of 191 to 193 °C.

The molecule `CCOc1cccc2c1CN(C1CC(=O)NC1=O)C=N2` (stereo not drawn) [Example 12b, 3-(5-ethoxy-4H-quinazolin-3-yl)-pyrrolidine-2,5-dione] showed a melting point of 203 to 205 °C.

`CCCCCOc1cccc2c1CN(C1CC(=O)NC1=O)C=N2` (stereo not drawn) [Example 12c, 3-(5-pentyloxy-4H-quinazolin-3-yl)-pyrrolidine-2,5-dione] yielded a melting point of 154 to 160 °C.

Regarding `O=C1CC(N2C=Nc3cccc(OCc4ccccc4)c3C2)C(=O)N1` (stereo not drawn) [Example 12d, 3-(5-benzyloxy-4H-quinazolin-3-yl)-pyrrolidine-2,5-dione], the melting point fell in the range of 100 to 108 °C.

Regarding `CC(C)Oc1cccc2c1CN(C1CC(=O)NC1=O)C=N2` (stereo not drawn) [Example 12e, 3-(5-isopropoxy-4H-quinazolin-3-yl)-pyrrolidine-2,5-dione], the melting point fell in the range of 191 to 192 °C.

Take `COCCOc1cccc2c1CN(C1CC(=O)NC1=O)C=N2` (stereo not drawn) [Example 12f, 3-(5-(2-methoxyethoxy)-4H-quinazolin-3-yl)-pyrrolidine-2,5-dione]: the melting point lay in the range of 288 to 290 °C.

In the case of `CC1=Nc2cc(C(F)(F)F)ccc2CN1C1CC(=O)NC1=O` (stereo not drawn) [Example 15aa, 3-(2-methyl-7-trifluoromethyl-4H-quinazolin-3-yl)-pyrrolidine-2,5-dione], the melting point lay within 205 to 206 °C.

The molecule `CC1=Nc2ccc(Cl)c(Cl)c2CN1C1CC(=O)NC1=O` (stereo not drawn) [Example 15c, 3-(5,6-dichloro-2-methyl-4H-quinazolin-3-yl)-pyrrolidine-2,5-dione] yielded a melting point of 161 to 166 °C.

The molecule `CC1=Nc2cc(Cl)cc(Cl)c2CN1C1CC(=O)NC1=O` (stereo not drawn) [Example 15d, 3-(5,7-dichloro-2-methyl-4H-quinazolin-3-yl)-pyrrolidine-2,5-dione] had a melting point of 199 to 201 °C.

Turning to `CC1=Nc2cc([N+](=O)[O-])ccc2CN1C1CC(=O)NC1=O` (stereo not drawn) [Example 15ee, 3-(2-methyl-7-nitro-4H-quinazolin-3-yl)-pyrrolidine-2,5-dione], the melting point fell in the range of 203 to 210 °C.

`CC1=Nc2c(Cl)ccc(Cl)c2CN1C1CC(=O)NC1=O` (stereo not drawn) [Example 15f, 3-(5,8-dichloro-2-methyl-4H-quinazolin-3-yl)-pyrrolidine-2,5-dione] registered a melting point of 186 to 191 °C.

In turn, `CC1=Nc2c(Br)cc(C)cc2CN1C1CC(=O)NC1=O` (stereo not drawn) [Example 15ff, 3-(8-bromo-2,6-dimethyl-4H-quinazolin-3-yl)-pyrrolidine-2,5-dione] showed a melting point of 145 to 150 °C.

`CC1=Nc2c(Cl)cccc2CN1C1CC(=O)NC1=O` (stereo not drawn) [Example 15hh, 3-(8-chloro-2-methyl-4H-quinazolin-3-yl)-pyrrolidine-2,5-dione]: the melting point was in the range of 176 to 178 °C.

In the case of `CCOc1cccc2c1CN(C1CC(=O)NC1=O)C(C)=N2` (stereo not drawn) [Example 15k, 3-(5-ethoxy-2-methyl-4H-quinazolin-3-yl)-pyrrolidine-2,5-dione], the melting point lay within 130 to 133 °C.

For the molecule `CC1=Nc2cccc(OC(C)C)c2CN1C1CC(=O)NC1=O` (stereo not drawn) [Example 15m, 3-(5-isopropoxy-2-methyl-4H-quinazolin-3-yl)-pyrrolidine-2,5-dione], the melting point lay in the range of 116 to 119 °C.

As for `CC1=Nc2cccc(C)c2CN1C1CC(=O)NC1=O` (stereo not drawn) [Example 15n, 3-(2,5-dimethyl-4H-quinazolin-3-yl)-pyrrolidine-2,5-dione], the melting point was in the range of 200 to 201 °C.

Regarding `COc1cccc2c1CN(C1CC(=O)NC1=O)C(C)=N2` (stereo not drawn) [Example 15o, 3-(5-methoxy-2-methyl-4H-quinazolin-3-yl)-pyrrolidine-2,5-dione], the melting point amounted to 122 °C.

Turning to `CC1=Nc2cccc([N+](=O)[O-])c2CN1C1CC(=O)NC1=O` (stereo not drawn) [Example 15p, 3-(2-methyl-5-nitro-4H-quinazolin-3-yl)-pyrrolidine-2,5-dione], the melting point is > 260 °C (dec.).

For `CCCCCOc1cccc2c1CN(C1CC(=O)NC1=O)C(C)=N2` (stereo not drawn) [Example 15q, 3-(2-methyl-5-pentyloxy-4H-quinazolin-3-yl)-pyrrolidine-2,5-dione], the melting point fell in the range of 154 to 156 °C.

As to `CC1=Nc2cc3ccccc3cc2CN1C1CC(=O)NC1=O` (stereo not drawn) [Example 15t, 3-(2-methyl-4H-benzo[g]quinazolin-3-yl)-pyrrolidine-2,5-dione], the melting point lay within 106 to 110 °C.

Consider `COc1cc2c(cc1OC)N=C(C)N(C1CC(=O)NC1=O)C2` (stereo not drawn) [Example 15v, 3-(6,7-dimethoxy-2-methyl-4H-quinazolin-3-yl)-pyrrolidine-2,5-dione], for which the melting point is 200 to 202 °C.

In turn, `CC1=Nc2c(Cl)cc(Cl)cc2CN1C1CC(=O)NC1=O` (stereo not drawn) [Example 15w, 3-(6,8-dichloro-2-methyl-4H-quinazolin-3-yl)-pyrrolidine-2,5-dione] had a melting point of 180 to 182 °C.

For `CC1=Nc2ccc(OCc3ccccc3)cc2CN1C1CC(=O)NC1=O` (stereo not drawn) [Example 15x, 3-(6-benzyloxy-2-methyl-4H-quinazolin-3-yl)-pyrrolidine-2,5-dione], the melting point was 132 to 143 °C.

As to `CC1=Nc2ccc(Cl)cc2CN1C1CC(=O)NC1=O` (stereo not drawn) [Example 15y, 3-(6-chloro-2-methyl-4H-quinazolin-3-yl)-pyrrolidine-2,5-dione], the melting point is 195 to 203 °C.

As to `CC1=Nc2ccc([N+](=O)[O-])cc2CN1C1CC(=O)NC1=O` (stereo not drawn) [Example 15z, 3-(2-methyl-6-nitro-4H-quinazolin-3-yl)-pyrrolidine-2,5-dione], the melting point is 170 to 175 °C.

Another data set deals with IL-10 production of LPS-activated monocytes. Description: Increase in IL-10 production of LPS-activated human monocytes (sandwich ELISA of culture supernatants). The class given is cell-based. Particulars: Monocyte; human CD14-positive monocytes, 1 h preincubation with test substance, 10 μg/ml LPS from E. coli, 24 hours. The procedure:
(§1) Stimulation of human monocytes with lipopolysaccharide for secretion of IL-10 and IL-12:
(§2) Human monocytes were isolated from peripheral blood mononuclear cells (PBMC), which were obtained from heparinized whole blood by means of a Ficoll density gradient centrifugation. For this, the PBMC were incubated with a monoclonal antibody which is directed against the monocyte-specific surface molecule CD14 and to which superparamagnetic microbeads (Miltenyi Biotech, Bergisch Gladbach) are coupled. For positive selection of the labelled monocytes from the cell mixture of the PBMC, the entire cell suspension was applied to a column with a ferromagnetic carrier matrix and this was placed in a magnetic field. The cells loaded with microbeads were thereby bound to the carrier matrix, and non-labelled cells passed through the column and were discarded. After removing the matrix from the magnetic field, the antibody-laden cells were eluted by rinsing the now demagnetized column with buffer. The purity of this CD14-positive monocyte population obtained in this way is about 95-98%. These monocytes were incubated in a density of 10^6 cells/ml of culture medium (RPMI, supplemented with 10% foetal calf serum) with the test substances, dissolved in DMSO, at 37° C. and 5% CO2 for one hour. 10 μg/ml of LPS from E. coli were then added. After 24 hours, cell-free culture supernatants were taken and tested for the content of IL-10 and IL-12.
(§3) The concentration of IL-12 and IL-10 in the cell culture supernatants was determined by means of sandwich ELISAs using two anti-IL-12 and, respectively, IL-10 monoclonal antibodies (Biosource Europe, Fleurus, Belgium). A reference standard curve with human IL-10 and, respectively, IL-12 was included. The detection limit of the ELISAs was 15 pg/ml.
For orientation: ELISA stands for enzyme-linked immunosorbent assay.
Consider `O=C1CC(N2C=Nc3cc(F)cc(Cl)c3C2)C(=O)N1` (stereo not drawn) [Example 1, 3-(5-chloro-7-fluoro-4H-quinazolin-3-yl)-pyrrolidine-2,5-dione], for which the EC200 came to 4 µg/mL.

Regarding `O=C1CC(N2C=Nc3cc(Cl)cc(F)c3C2)C(=O)N1` (stereo not drawn) [Example 2, 3-(7-chloro-5-fluoro-4H-quinazolin-3-yl)-pyrrolidine-2,5-dione], the EC200 stood at 1 µg/mL.

As to `O=C1CC(N2C=Nc3cc(F)cc(F)c3C2)C(=O)N1` (stereo not drawn) [Example 4, 3-(5,7-difluoro-4H-quinazolin-3-yl)-pyrrolidine-2,5-dione], the EC200 was 0.62 µg/mL.

The next data set concerns IL-12 production of LPS-activated monocytes. Description: Inhibition of IL-12 production of LPS-activated human monocytes (sandwich ELISA of culture supernatants). The data set is classed as cell-based. As to conditions: Monocyte; human CD14-positive monocytes, 1 h preincubation with test substance, 10 μg/ml LPS from E. coli, 24 hours. The procedure: as §1, §2, §3
In general, IC50 refers to the concentration that gives 50% inhibition. A low value points to higher potency. Regarding `O=C1CC(N2C=Nc3cc(F)cc(Cl)c3C2)C(=O)N1` (stereo not drawn) [Example 1, 3-(5-chloro-7-fluoro-4H-quinazolin-3-yl)-pyrrolidine-2,5-dione], the IC50 was 1.5 µg/mL (≈ 5.33 µM).

As to `O=C1CC(N2C=Nc3cc(Cl)cc(F)c3C2)C(=O)N1` (stereo not drawn) [Example 2, 3-(7-chloro-5-fluoro-4H-quinazolin-3-yl)-pyrrolidine-2,5-dione], 1.4 µg/mL (≈ 4.97 µM) corresponded to half-maximal inhibition (IC50).

As to `O=C1CC(N2C=Nc3cc(F)cc(F)c3C2)C(=O)N1` (stereo not drawn) [Example 4, 3-(5,7-difluoro-4H-quinazolin-3-yl)-pyrrolidine-2,5-dione], 0.107 µg/mL (≈ 0.403 µM) corresponded to half-maximal inhibition (IC50).
